Results published in ChEMBL document CHEMBL3352051, “Isolation, structure determination and cytotoxicity studies of tryptophan alkaloids from an Australian marine sponge Hyrtios sp” (Bioorg Med Chem Lett, 2014).

Columns and labels:
NFF = assay: Cytotoxicity against human NFF cells after 72 hrs by Alamar Blue assay; format: cell-based
LNCaP [1] = assay: Selectivity index, ratio of IC50 for human NFF cells to IC50 for human LNCaP cells; format: functional
LNCaP [2] = assay: Cytotoxicity against human LNCAP cells after 72 hrs by Alamar Blue assay; format: functional, cell-based
[3] = Antiproliferative activity against human OVCAR3 cells; format: functional, cell-based; details: OVCAR-3
Malme-3M = assay: Antiproliferative activity against human MALME-3M cells; format: functional, cell-based
MCF7 = assay: Antiproliferative activity against human MCF7 cells; format: functional, cell-based

SMILES	IC50 (NFF)	Ratio IC50 (LNCaP [1])	IC50 (LNCaP [2])	EC50 [3]	EC50 (Malme-3M)	EC50 (MCF7)
O=C1c2ccccc2-n2c1c1[nH]c3ccccc3c1cc2=O	32.1 µM	1.4	22.9 µM			
O=C(O)c1ccccc1-n1ccc2c([nH]c3ccccc32)c1=O	47.6 µM	1.06	44.9 µM			
COc1cccc2c1C(=O)c1c(O)c3c(c(O)c1C2=O)C[C@@](O)(C(=O)CO)C[C@@H]3O[C@H]1C[C@H](N)[C@H](O)[C@H](C)O1 [DOXORUBICIN]	0.126 µM	8.97	0.0135 µM			
O=C1c2ccccc2-[n+]2ccc3c([nH]c4ccccc43)c21 [FASCAPLYSIN]	0.339 µM	0.63	0.54 µM	0.16 µg/mL	0.03 µg/mL	0.14 µg/mL
O=C(O)c1ccccc1-[n+]1ccc2c(c1)[nH]c1ccccc12.[Cl-] [RETICULATATE]	19.8 µM	0.77	25.9 µM			
